melting point [°C] | Compound
130 to 133 | CCCCC1CCc2c(OCc3ccc4ccccc4n3)cccc2C1O (stereo not given)
166 to 167 | CC(C)(C)OC(=O)N1CCc2c(n(CCO)c3cc(Cl)cc(Cl)c23)CC1
245 to 250 | NC(=O)Oc1ccccc1-c1nc2cc(F)c(OCc3c(Cl)cccc3Cl)cc2s1
228 to 229 | O=C(Nc1cc(-c2ccc(Cl)cc2)on1)c1c(Cl)cccc1Cl
71 to 73 | CCOC(=S)c1c(CC)nc2ccccn12
77 to 79 | CCOC(=O)C(=O)c1cc(O)c(O)c([N+](=O)[O-])c1
262 to 264 | O=c1cc(-c2cccs2)c2ccccc2[nH]1
206 to 208 | COc1ccc(C(=O)Nc2ccccc2)cc1NS(=O)(=O)c1ccc(C#N)cc1
177 to 179 | Cc1ccc(O)c(C)c1N
132 | CC1=CC(O)(c2nc3ccccc3s2)C=C(C)C1=O
90 to 91 | CCOC(=O)c1ccc(NC(=O)COC)cc1NC(=O)COC
183 to 185 | CCC(=Nc1ccc2c(c1)C(=O)c1ccc(N=C(CC)N3CCCCC3)cc1C2=O)N1CCCCC1
157 to 158 | COC(CCCNc1ccc(-c2nc(=O)c3ccccc3s2)cn1)OC
47 to 49 | CCOC(=O)CC(=O)c1cc(F)c(F)c(F)c1F
163 to 165 | CCCc1ccccc1OCCCOc1ccc2c(c1CCC)OC(CCC(=O)O)(CCC(=O)O)CC2=O
162 to 164 | Nc1nnc(SCc2ccc(Cl)cc2)s1
85 to 87 | Cc1ccc(Oc2ccccc2C(=N)NO)c(O)c1
155 to 157 | CC(c1oc2ccccc2c(=O)c1-c1cccc(F)c1)n1nc(-c2cccc(OC(F)(F)F)c2)c2c(N)ncnc21 (stereo not given)
77 | CCSc1cccc(OC(F)(F)F)c1S(=O)(=O)NC(C)(C)C
42 to 47 | O=C(CNc1ccc2[nH]ncc2c1)N1CCC(Cc2ccccc2)CC1
122 to 123 | COc1ccc(S(=O)(=O)Nc2cccnc2Nc2ccc(OS(=O)(=O)c3ccc(OC)cc3)cc2)cc1
190 to 194 | CNS(=O)(=O)OCC(=O)N(c1c(C)ccc2ccccc12)C1CCOC1=O (stereo not given)
105 to 106 | CS(=O)(=O)c1ccccc1C#N
150 | COc1ccc(Br)cc1S(=O)(=O)NCCCl

melting point [°C] | Compound
138 to 140 | COc1ccc2[nH]c(C(N)=O)c(OC(C)C)c2c1
158 | Nc1cc(=O)n(Cc2ccc(I)cc2)[nH]1
138 to 139 | COc1ccc2c(CN3CCC[C@H]3CO)cc3cc4c(cc3c2c1)OCO4
212 to 214 | Nc1ccc2c(-c3ccccc3)c([N+](=O)[O-])oc2c1
154 | CS(=O)(=O)NCCNc1ccc([N+](=O)[O-])cc1
91 to 93 | COC(=O)c1ccc(C=O)cc1SCc1ccccc1
270 to 275 | CS(=O)(=O)Oc1ccc2c(=O)c(C(=O)O)cn3c2c1CCC3
101 to 102 | CC1(C(=O)N2C[C@@H]3C[C@H]2C(=O)O3)CC1
90 | CCOC(=O)c1nccn1C1Cc2ccc(Cl)c(Cl)c2C1=O (stereo not given)
76 to 77 | CC1(C)COCC(=O)N1NCc1ccccc1
69 to 101 | CC(=O)OC1CSC(Oc2cccnc2-c2ccccc2)C(OC(C)=O)C1OC(C)=O (stereo not given)
186 to 187 | CS(=O)(=O)c1ccccc1-c1cc(F)cc(OCc2ccc3c(-c4ccoc4)cc(C#N)nc3c2)c1
189 to 190 | CCC(C)(C)NC(Nc1cc(OC)cc(OC)c1)=C(C#N)S(=O)(=O)c1ccc(Cl)cc1
82 to 85 | CCCCCCCCn1c(=O)c2c(Cl)cc(Cl)cc2n(Cc2ccccc2)c1=O
150 to 151 | COc1ccc(S(=O)(=O)Nc2ccccc2NC(=O)c2cc(C)nc(Cl)c2)cc1
89 to 91 | CCOc1ccc(CCCOc2c(CC(=O)O)cccc2OC)c(Oc2ccc(Cl)cc2Cl)n1
228 to 230 | CCNC(=O)C(C)(C)c1ccc(C(=O)Nc2cn3cc(Cl)ccc3n2)cc1
139 | CC(O)Cn1cnc2c1c(=O)n(CC1CCCC1)c(=O)n2CC1CCCC1 (stereo not given)
320 to 322 | O=C1c2ccccc2C(c2ccc(O)cc2)(c2ccc(O)cc2)c2ccccc21
159 to 160 | COc1ccc(S(=O)(=O)Nc2cccnc2Nc2ccc(OC)nc2)cc1
74.1 | N[C@@H]1CCN(Cc2ccccc2)C[C@H]1O (relative stereo)
128 to 129 | N#Cc1cc([N+](=O)[O-])ccc1Oc1c(F)c(F)c(F)c(F)c1F
46 to 48 | O=[N+]([O-])c1ccc(OC(F)(F)c2ccccc2)cc1
126 to 128 | Cn1ccc(-n2ccnc2S)n1

melting point [°C] | Compound
155 to 156 | Cc1oc(-c2ccccc2)nc1COc1ccccc1CO
61.5 to 62.5 | CCc1c(Cl)cnn(C(C)(C)C)c1=O
116 to 117 | C[C@@H]1CN(C(=O)[C@@](C)(O)C(F)(F)F)[C@@H](C)CN1S(=O)(=O)c1cccs1
118 to 120 | CCCCOC(=O)C(=O)Nc1cc(C#N)cc(NC(=O)C(=O)OCCCC)c1Cl
139 to 140 | CC(=O)SCC(Cc1ccccc1)C(=O)Nc1ccc(C(=O)OCc2ccccc2)cc1 (stereo not given)
222 to 224 | COc1cccc2c1nc(C(F)F)n2-c1nc(-c2cncnc2)cc(N2CCOCC2)n1
218 to 220 | Cc1csc(C(=O)c2[nH]c3ccc(Cl)cc3c2CC(=O)O)n1
115 | C=CC(=O)[C@H](Cc1cc(F)cc(F)c1)NC(=O)OC(C)(C)C
236 to 238 | O=C(c1cn(-c2ccccc2)nc1-c1ccc([N+](=O)[O-])o1)N1CCCC1
136 to 139 | CN(C)CCCN(C)C(=O)Nc1ccc(-c2nnc(CSCCOc3ccccc3)o2)cc1
227 to 229 | CSc1ccc(-n2c(-c3ccncc3)nc(SC)c(C#N)c2=O)cc1
118 to 119 | CS(=O)(=O)c1ccc(C(Cc2ccccc2)C(=O)Nc2nc3ccccc3o2)cc1 (stereo not given)
132 to 138 | O=C(O)c1ccccc1-n1nc(-c2ccccc2O)nc1-c1ccccc1O
153 to 155 | O=C(OCc1ccccc1)N1CCN(c2ccc(S(=O)(=O)N3CCCC3=O)cc2)CC1
92 to 94 | Brc1cccc(C2Cc3cnc(Nc4ccc(CCNc5ccccc5)cc4)nc3-c3ccccc32)c1 (stereo not given)
52 to 54 | CS(=O)(=O)Nc1ccnn1-c1ncc(Cl)cc1Cl
178 to 180 | COc1cc(Nc2c(C#N)cnc3cc(OCC(C)(C)CN(C)C)c(OC)cc23)c(Cl)cc1Cl
234 to 235 | CN1C(=O)C(C(=O)Nc2nccs2)Sc2ccccc21 (stereo not given)
208 | OC(Cn1cncn1)(c1ccc(Cl)cc1)C1(n2cncn2)CC1 (stereo not given)
125 to 127 | CC(C)(O)c1csc(S(N)(=O)=O)c1
50 to 53 | O=C(C(CCCl)c1ccccc1)N1CCCCCC1 (stereo not given)
170 to 171 | CS(=O)(=O)c1ccc(-c2nn(CCc3ccccc3)cc2-c2ccc(F)cc2)cc1
158 to 160 | CC[Si](C#Cc1ccc2nc(-n3ccnc3)nc(NCCOC)c2c1)(CC)CC
85 to 87 | CCc1onc(-c2ccccc2)c1-c1ccccc1

melting point [°C] | Compound
112 to 114 | CC1(C)C2CC[C@]1(C)C(=O)C(C(=O)Nc1cc(Cl)cc(Cl)c1)C2=O (stereo not given in full)
153 to 155 | CC[C@H](C)[C@H](OCc1ccccc1)[C@H]1[C@H]([N+](=O)[O-])[C@@H]([C@@H](OCc2ccccc2)C(C)C)N[C@@H]1C(=O)NCC(=O)O
236 to 240 | CCOC(=O)c1cn2c3c(c(F)c(F)c(F)c3c1=O)CCN2C
142 to 143 | O=C(O)CCc1ocnc1-c1ccccc1
156 to 159 | CCOc1cc2ncc(C#N)c(NCc3cccc(Br)c3)c2cc1OCC
146 to 147 | CCCCCS(=O)c1cccc(-c2nc(=O)c3ccccc3s2)n1 (stereo not given)
211 to 212 | O=c1n(-c2cc(O)c(Cl)cc2Cl)nc2n1CCCC2
141 to 142 | Nc1c(C=O)c(=O)n(-c2ccccc2)c(=O)n1-c1ccccc1
116 to 118 | COC(=NS(=O)(=O)c1nc(-c2ccccc2C)ns1)C(C)C
215 to 216 | CCCOc1ccc2cc(-c3ccc4c(c3)C=C(C(=O)Nc3ccc(CN(C)C5CCOCC5)cc3)CCS4(=O)=O)oc2c1
122 to 124 | CCNc1ncccc1C(=O)Nc1c(C)ccnc1Cl
94 to 105 | NC1=NC(c2ccc(OC(F)(F)F)cc2)(c2ccc(F)c(N3C=C(F)C=NC3)c2)C2=NCCCN12 (stereo not given)
196 to 198 | CC1c2ccccc2-c2ccccc2N1S(=O)(=O)c1ccc(O)cc1 (stereo not given)
123 | CCCN(CCCc1c[nH]c2ccc(F)cc12)C1COc2c(F)ccc(C(=O)NC)c2C1 (stereo not given)
67 to 68 | O=C(OCc1ccccc1)C(O)P(=O)(OCc1ccccc1)OCc1ccccc1 (stereo not given)
176 to 178 | CC(C)(C)c1cc(NC(=O)Nc2ccc(-c3c(C(N)=O)[nH]c4ccccc34)cc2)no1
225 to 226 | O=C(c1cccs1)c1cnn2c(-c3csc([N+](=O)[O-])c3)ccnc12
259 to 260 | O=C(Nc1nc(-c2ccco2)c(C(=O)c2cc[nH]c2)s1)c1ccncc1
157 to 158 | Cc1nn(-c2ccc(C(F)(F)F)cn2)cc1CO
260 to 285 | COCC1COc2cc3ncnc(Nc4ccc(F)c(Cl)c4)c3cc2O1 (stereo not given)
190 to 194 | Nc1ccc(C(=O)NCC(=O)O)c(F)c1
130 | CC(C)(C)OC(=O)N1CCCC(c2ncc(-c3cnc(-c4ccccc4)nc3)[nH]2)C1 (stereo not given)
228 to 229 | N=C(N)Nc1nc(CCCCNc2c(NCCCCc3csc(NC(=N)N)n3)c(=O)c2=O)cs1
130 to 142 | CCOC(=O)CC1SC2=Nc3ccccc3CN2C1=O (stereo not given)

Compound | melting point [°C]
CCOC(=O)C1(N)N=C(c2ccccc2Cl)c2cc(CC)sc2-n2c(C)nnc21 (stereo not given) | 180 to 181
CC(=O)Nc1ccc(OCCN2CC=C(c3ccc(F)cc3)CC2)cc1 | 96 to 98
O=C(CCl)NCCOCCO | 130 to 132
O=c1c2ccc(O)cc2nc(-c2ccc(O)cc2)n1-c1ccc(OCCCl)cc1 | 285 to 287

Reference: a melting point compilation (Tetko et al.; mined from patent text by program, amines drawn as free bases though some values may be those of a salt)
